# Values quoted from earlier work in US20160374909A9, “Treating Cariogenic diseased oral biofilm with elevated pH” (Dental Alliance Holdings, LLC dba Oral Bio Tech, priority 2006, published 2016).
# Assays:
# Mutans streptococci = details: rinse or varnish
# Lactobacilli = details: rinse or varnish
smiles,measurement,setting,value
[H]/N=C(\N/C(=N/[H])NCCCCCCNC(=N)NC(=N)Nc1ccc(Cl)cc1)Nc1ccc(Cl)cc1 [chlorhexidine],effect against Mutans streptococci,Mutans streptococci,effective
same,effect against Lactobacilli,Lactobacilli,no effect
